# Where two headings read alike, the source gives them in different places.
# How the values were obtained:
# [1] = system: SOOSS; assay: Example V: postemergence herbicidal activity of mixtures in forage crops, SOOSS; type: in vivo, Solidago L. spec. (goldenrod); settings: alone, 70 gae/ha, foliar, approximately 21 days
# Procedure: (§1) Seeds or root cuttings of the desired test plant species were planted in Sun Gro MetroMix® 306 planting mixture, which typically has a pH of 6.0 to 6.8 and an organic matter content of about 30 percent, in plastic pots with a surface area of 126.6 square centimeters (cm^2). […] The plants were grown for 14-60 days in a greenhouse with an approximate 14 hour photoperiod which was maintained at approximately 28° C. during the day and 24° C. during the night.
# (§2) Spray solutions of the second herbicide or experimental compound mixtures were prepared by adding the stock solutions to the appropriate amount of dilution solution to form 12 mL spray solution with active ingredients in two-way combinations.
# [2] = system: SONAR; assay: Example V: postemergence herbicidal activity of mixtures in forage crops, SONAR; type: in vivo, Sonchus arvensis (field sowthistle); settings: alone, foliar, approximately 21 days
# Procedure: as §1, §2
# [3] = system: CIRAR; assay: Example V: postemergence herbicidal activity of mixtures in forage crops, CIRAR; type: in vivo, Cirsium arvense (Canada thistle); settings: alone, 70 gae/ha, foliar, approximately 21 days
# Procedure: as §1, §2
# [4] = system: TRFRE; assay: Example V: postemergence herbicidal activity of mixtures in forage crops, TRFRE; type: in vivo, Trifolium repens (white clover); settings: alone, foliar, approximately 21 days
# Procedure: as §1, §2
# [5] = system: CENMA; assay: Example V: postemergence herbicidal activity of mixtures in forage crops, CENMA; type: in vivo, Centaurea maculosa (spotted knapweed); settings: alone, foliar, approximately 21 days
# Procedure: as §1, §2
# [6] = system: ECHOR; assay: Example II: in-water applied herbicidal mixtures, transplanted paddy rice, ECHOR; type: in vivo, Echinochloa oryzoides (early watergrass); settings: Echinochloa oryzoides; for pest or weed control at 70 g/ha: 70 gae/ha; for pest or weed control at 140 g/ha: 140 gae/ha
# Procedure: (§3) The prepared mud was dispensed in 365 mL aliquots into 16-ounce (oz.) non-perforated plastic pots with a surface area of 86.59 square centimeters (cm^2) leaving a headspace of 3 centimeters (cm) in each pot Mud was allowed to dry overnight prior to planting or transplanting. Rice seeds were planted in Sun Gro MetroMix® 306 planting mixture, which typically has a pH of 6.0 to 6.8 and an organic matter content of about 30 percent, in plastic plug trays. Seedlings at the second or third leaf stage of growth were transplanted into 840 mL of mud contained in 32-oz. non-perforated plastic pots with a surface area of 86.59 cm^2 4 days prior to herbicide application. […] Nutrients were added as Osmocote® (19:6:12, N:P:K^+ minor nutrients) at 2 g per 16-oz. pot and 4 g per 32-oz. pot.
# (§4) Applications were made by injecting with a pipetter appropriate amounts of the application solutions, individually and sequentially, into the aqueous layer of the paddy. Control plants were treated in the same manner with the solvent blank. Applications were made so that all treated plant material received the same concentrations of acetone and crop oil concentrate.
# [7] = system: SCPMA; assay: Example II: in-water applied herbicidal mixtures, transplanted paddy rice, SCPMA; type: in vivo
# Procedure: as §3, §4
# [8] = system: ECHCO; assay: Example I: postemergence foliar-applied herbicidal mixtures, direct seeded rice, ECHCO
# [9] = system: CYPDI; assay: Example I: postemergence foliar-applied herbicidal mixtures, direct seeded rice, CYPDI; type: in vivo, Cyperus difformis (smallflower umbrella sedge)
# Procedure: (§7) The soil matrix was contained in plastic pots with a volume of 1 quart and a surface area of 83.6 square centimeters (cm^2). […] The plants were grown for 8-22 days in a greenhouse with an approximate 14 h photoperiod which was maintained at about 29° C. during the day and 26° C. during the night. Nutrients (Peters Excel® 15-5-15 5-Ca 2-Mg and iron chelate) were applied in the irrigation solution as needed and water was added on a regular basis. Supplemental lighting was provided with overhead metal halide 1000-Watt lamps as necessary. The plants were employed for testing when they reached the first through fourth true leaf stage.
# (§8) Treatments consisted of the acid or esters of 4-amino-3-chloro-5-fluoro-6-(4-chloro-2-fluoro-3-methoxy-phenyl)pyridine-2-carboxylic acid (Compound A), each formulated as an SC (suspension concentrate), and various herbicidal components alone and in combination. Forms of compound A were applied on an acid equivalent basis.
# (§9) For treatments comprised of formulated compounds, measured amounts of compounds were placed individually in 25 mL glass vials and diluted in a volume of 1.25% (v/v) Agri-Dex® crop oil concentrated to obtain 12× stock solutions. […] Application solutions were prepared by adding an appropriate amount of each stock solution (e.g., 1 mL) and diluted to the appropriate final concentrations with the addition of 10 mL of an aqueous mixture of 1.25% (v/v) crop oil concentrate so that the final spray solutions contained 1.25+/−0.05% (v/v) crop oil concentrate.
# (§10) All stock solutions and applications solutions were visually inspected for compound compatibility prior to application. Spray solutions were applied to the plant material with an overhead Mandel track sprayer equipped with a 8002E nozzles calibrated to deliver 187 L/ha over an application area of 0.503 m^2 at a spray height of 18 to 20 inches (46 to 50 cm) above average plant canopy height. Control plants were sprayed in the same manner with the solvent blank.
# (§11) The treated plants and control plants were placed in a greenhouse as described above and watered by sub-irrigation to prevent wash-off of the test compounds. After approximately 3 weeks, the condition of the test plants as compared with that of the untreated plants was determined visually and scored on a scale of 0 to 100 percent where 0 corresponds to no injury or growth inhibition and 100 corresponds to complete kill.
# (§12) Colby's equation was used to determine the herbicidal effects expected from the mixtures (Colby, S. R. 1967. Calculation of the synergistic and antagonistic response of herbicide combinations. Weeds 15:20-22).
# (§13) The following equation was used to calculate the expected activity of mixtures containing two active ingredients, A and B: Expected=A+B−(A×B/100) […]
# [10] = system: LEFCH; assay: Example II: in-water applied herbicidal mixtures, transplanted paddy rice, LEFCH; type: in vivo, Leptochloa chinensis (Chinese sprangletop); settings: 25 DAA; 70 gae/ha
# Procedure: as §3, §4
# [11] = system: ECHCG; assay: Example I: postemergence foliar-applied herbicidal mixtures, direct seeded rice, ECHCG
# [12] = system: SCPJU; assay: Example II: in-water applied herbicidal mixtures, transplanted paddy rice, SCPJU; type: in vivo, Schoenoplectus juncoides (Japanese bulrush); settings: 25 DAA
# Procedure: as §3, §4
# [13] = system: LEFCH; assay: Example I: postemergence foliar-applied herbicidal mixtures, direct seeded rice, LEFCH; type: in vivo, Leptochloa chinensis (Chinese sprangletop); settings: 280 gae/ha
# [14] = system: ECHCG; assay: Example II: in-water applied herbicidal mixtures, transplanted paddy rice, ECHCG; type: in vivo, Echinochloa crus-galli (barnyardgrass)
# Procedure: as §3, §4
# [15] = system: SORHA; assay: Example III: postemergence foliar-applied herbicidal mixtures, row crop weeds, SORHA; type: in vivo, Sorghum halepense (johnsongrass); settings: 13 DAA; 7.5 gae/ha
# Procedure: (§5) The plants were grown for 7-31 days (d) in a greenhouse with an approximate 15 hour (h) photoperiod which was maintained at about 23-29° C. during the day and 22-28° C. during the night.
# [16] = system: ELEIN; assay: Example III: postemergence foliar-applied herbicidal mixtures, weeds common to row crops such as corn and soybeans (greenhouse), ELEIN; type: in vivo, Eleusine indica (goosegrass); settings: 17 DAA
# Procedure: as §5
# [17] = system: AMARE; assay: Example IV: postemergence foliar-applied herbicidal mixtures, weed control in cereal crops in the greenhouse, AMARE; type: in vivo, Amaranthus retroflexus (redroot pigweed); settings: alone, 140 gai/ha, 20-22 days
# Procedure: as §1, with “Seeds” for “Seeds or root cuttings”, “MetroMix” for “MetroMix®”, “103.2” for “126.6”, “7-36” for “14-60”, “about 18°” for “approximately 28°”, “17°” for “24°”
# (§6) Spray solutions of the second cereal herbicide and experimental compound mixtures were prepared by adding the stock solutions to the appropriate amount of dilution solution to form 12 mL spray solution with active ingredients in two- and three-way combinations.
# [18] = system: CYPES; assay: Example I: postemergence foliar-applied herbicidal mixtures, direct seeded rice, CYPES; type: in vivo, Cyperus esculentus (yellow nutsedge)
# Procedure: as §7, §8, §9, §10, §11, §12, §13
# [19] = system: VIOTR; assay: Example IV: postemergence foliar-applied herbicidal mixtures, cereal crops, VIOTR; type: in vivo, Viola tricolor (wild pansy); settings: alone, 140 gai/ha, foliar, 20-22 days
# Procedure: as §1, with “Seeds” for “Seeds or root cuttings”, “MetroMix” for “MetroMix®”, “103.2” for “126.6”, “7-36” for “14-60”, “about 18°” for “approximately 28°”, “17°” for “24°”
# as §6
# [20] = system: ISCRU; assay: Example I: postemergence foliar-applied herbicidal mixtures, direct seeded rice, ISCRU; type: in vivo, Ischaemum rugosum (saramollagrass)
# Procedure: as §7, §8, §9, §10, §11, §12
# (§14) The following equation was used to calculate the expected activity of mixtures containing two active ingredients, A and B: Expected=A+B−(A×B/100)
# (§15) A=observed efficacy of active ingredient A at the same concentration as used in the mixture.
# (§16) B=observed efficacy of active ingredient B at the same concentration as used in the mixture.
# [21] = system: CYPIR; assay: Example I: postemergence foliar-applied herbicidal mixtures, direct seeded rice, CYPIR; type: in vivo, Cyperus iria (rice flatsedge)
# [22] = system: POLCO; assay: Example IV: postemergence foliar-applied herbicidal mixtures, cereal crops, POLCO; type: in vivo, Polygonum convolvulus (wild buckwheat); settings: alone, 140 gai/ha, foliar, 20-22 days
# Procedure: as §1, with “Seeds” for “Seeds or root cuttings”, “MetroMix” for “MetroMix®”, “103.2” for “126.6”, “7-36” for “14-60”, “about 18°” for “approximately 28°”, “17°” for “24°”
# as §6
# [23] = system: DIGSA; assay: Example I: postemergence foliar-applied herbicidal mixtures, direct seeded rice, DIGSA; settings: 560 gai/ha
# Procedure: as §7, §8, §9, §10, §11, §12, §14, §15, §16
# [24] = system: CYPIR; assay: Example II: in-water applied herbicidal mixtures, transplanted paddy rice, CYPIR; type: in vivo, Cyperus iria L. (flatsedge; settings: 21 DAA; 560 gai/ha
# [25] = 456 h, read-out: Visual Weed Control (%) Obs, 19 DAA
# [26] = 600 h, read-out: Visual Weed Control (%) Obs, 25 DAA
# [27] = 70 gae/ha (Compound A Benzyl Ester rate not given)
# [28] = 140 gae/ha (Compound A Benzyl Ester rate not given)
structure (smiles),measurement,setting,value
CCCCCCC(C)OC(=O)COc1nc(F)c(Cl)c(N)c1Cl (stereo not drawn) [Fluroxypyr ME],SOOSS Obs (observed value),[1],50%
same,SONAR Obs (observed value),[2]; 35 gae/ha,0%
same,SONAR Obs (observed value),[2]; 70 gae/ha,15%
same,CIRAR Obs (observed value),[3],10%
same,TRFRE Obs (observed value),[4]; 35 gae/ha,15%
same,TRFRE Obs (observed value),[4]; 70 gae/ha,20%
same,CENMA Obs (observed value),[5]; 35 gae/ha,0%
same,CENMA Obs (observed value),[5]; 70 gae/ha,0%
"CCCCCCC(C)OC(=O)COc1nc(F)c(Cl)c(N)c1Cl (stereo not drawn) [Fluroxypyr MHE, 1-methylheptyl 2-[(4-amino-3,5-dichloro-6-fluoro-2-pyridinyl)oxy]acetate, reference compound]",pest or weed control at 70 g/ha,[6]; [25],0%
same,pest or weed control at 140 g/ha,[6]; [25],0%
same,pest or weed control at 70 g/ha,[6]; [26],0%
same,pest or weed control at 140 g/ha,[6]; [26],0%
same,Visual Weed Control (%) Obs,"[7]; 22 DAA, 149 gae/ha",30%
same,Visual Weed Control (%) - 21 DAA ECHCO Obs,[8]; 70 gae/ha,0%
same,Visual Weed Control (%) - 21 DAA ECHCO Obs,[8]; [27],0%
same,Visual Weed Control (%) - 21 DAA ECHCO Obs,[8]; 140 gae/ha,0%
same,Visual Weed Control (%) - 21 DAA ECHCO Obs,[8]; [28],0%
same,Visual Weed Control (%) - 21 DAA CYPDI Obs,[9]; 70 gae/ha,15%
same,Visual Weed Control (%) - 21 DAA CYPDI Obs,[9]; 140 gae/ha,80%
same,Visual Injury (%) Obs,[10],20%
same,Visual Weed Control (%) Obs,[10],20%
same,Visual Weed Control (%) - 21 DAA ECHCG Obs,[11]; 70 gae/ha,0%
same,Visual Weed Control (%) - 21 DAA ECHCG Obs,[11]; [27],0%
same,Visual Weed Control (%) - 21 DAA ECHCG Obs,[11]; 140 gae/ha,0%
same,Visual Weed Control (%) - 21 DAA ECHCG Obs,[11]; [28],0%
same,Visual Weed Control (%) - 19 DAA ECHCG Obs,[11]; 280 gae/ha,25%
same,Visual Weed Control (%) Obs,[12]; 70 gae/ha,20%
same,Visual Weed Control (%) Obs,[12]; 140 gae/ha,30%
same,Visual Weed Control (%) - 19 DAA LEFCH Obs,[13],28%
same,Visual Weed Control (%) Obs,"[14]; 19 DAA, 70 gae/ha",0%
same,Visual Weed Control (%) Obs,"[14]; 19 DAA, 140 gae/ha",0%
same,Visual Weed Control (%) Obs,"[14]; 19 DAA, 280 gae/ha",0%
same,Visual Weed Control (%) Obs,"[14]; 25 DAA, 140 gae/ha",0%
COc1c(Cl)ccc(-c2cc(N)c(Cl)c(C(=O)[O-])n2)c1F.[K+] [Halauxifen K^+ Salt],Visual Weed Control (%) Obs,[15],0%
same,Visual Weed Control (%) Obs,[16]; 3.75 gae/ha,30%
same,Visual Weed Control (%) Obs,[16]; 7.5 gae/ha,40%
same,Visual Weed Control (%) Obs,[16]; 15 gae/ha,50%
"O=C(O)c1c(Cl)ccc2cc(Cl)cnc12 [Quinclorac, 3,7-dichloro-8-quinolinecarboxylic acid]",AMARE Ob (observed value),[17],27%
same,Visual Weed Control (%) - 21 DAA CYPES Obs,[18]; 70 gai/ha,0%
same,Visual Weed Control (%) - 21 DAA CYPES Obs,[18]; 140 gai/ha,0%
same,Visual Weed Control (%) - 21 DAA CYPES Obs,[18]; 280 gai/ha,0%
same,pest or weed control at 560 g/ha,"[6]; 480 h, 20 DAA, 560 gai/ha, read-out: Visual Weed Control (%) Obs",20%
same,VIOTR Ob (observed value),[19],0%
same,Visual Weed Control (%) Obs,"[7]; 20 DAA, 560 gai/ha",0%
same,Visual Weed Control (%) - 21 DAA ISCRU Obs,[20]; 140 gai/ha,0%
same,Visual Weed Control (%) - 21 DAA ISCRU Obs,[20]; 280 gai/ha,0%
same,Visual Weed Control (%) - 21 DAA ISCRU Obs,[20]; 560 gai/ha,0%
same,Visual Weed Control (%) - 21 DAA CYPIR Obs,[21]; 70 gai/ha,0%
same,Visual Weed Control (%) - 21 DAA CYPIR Obs,[21]; 140 gai/ha,0%
same,Visual Weed Control (%) - 21 DAA CYPIR Obs,[21]; 280 gai/ha,0%
same,POLCO Ob (observed value),[22],3%
same,Visual Weed Control (%) - 20 DAA DIGSA Obs,[23],8%
same,Visual Weed Control (%) - 21 DAA DIGSA Obs,[23],8%
same,Visual Weed Control (%) - 21 DAA ECHCG Obs,[11]; 70 gai/ha,15%
same,Visual Weed Control (%) - 21 DAA ECHCG Obs,[11]; 140 gai/ha,30%
same,Visual Weed Control (%) - 21 DAA ECHCG Obs,[11]; 280 gai/ha,30%
same,Visual Weed Control (%) Obs,[24],0%

# Reference: patent publication US8912120B2, “Herbicidal compositions comprising 4-amino-3-chloro-5-fluoro-6-(4-chloro-2-fluoro-3-methoxyphenyl) pyridine-2-carboxylic acid or a derivative thereof and synthetic auxin herbicides” (Dow AgroSciences, LLC., priority 2012, dated 2014)
